Reference: patent publication US20050282810A1, “Oxindole derivatives” (priority 2000, published 2005)

Experiments:
TrkA = molecular target: T1, TrkA (Homo sapiens, UniProt P04629); assay: TrkA tyrosine kinase substrate phosphorylation assay (Src peptide, 33P-ATP, p81 filter plates); type: biochemical; conditions: GST-fusion of TrkA intracellular domain, 30 uM ATP, 50 uM Src peptide, RT 120 min
T1 construct: The enzyme is a GST-fusion of the intracellular domain expressed in SF9 cells; GST; host or cells: SF9 insect cells
T1 sequence (P04629 440-796 limits assumed, species assumed): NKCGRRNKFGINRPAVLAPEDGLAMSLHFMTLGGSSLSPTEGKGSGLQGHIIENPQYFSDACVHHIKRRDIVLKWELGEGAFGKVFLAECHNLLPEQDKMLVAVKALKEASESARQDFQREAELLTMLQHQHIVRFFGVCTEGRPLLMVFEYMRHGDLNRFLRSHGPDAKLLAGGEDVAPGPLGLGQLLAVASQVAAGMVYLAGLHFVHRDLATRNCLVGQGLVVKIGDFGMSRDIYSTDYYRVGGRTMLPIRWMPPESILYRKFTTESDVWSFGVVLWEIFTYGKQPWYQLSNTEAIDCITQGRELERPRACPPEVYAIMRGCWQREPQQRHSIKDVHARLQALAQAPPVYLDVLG
Method: The compounds of the present invention have valuable pharmacologic properties. Different compounds from this class are particularly effective at inhibiting the trkA kinase enzyme at concentrations that range from 0.0001 to 1 μM and additionally show specificity relative to other kinases. Substrate phosphorylation assays were carried out as follows:
Screening format: Tyrosine kinase activity is being measured using a synthetic peptide substrate. The enzyme is a GST-fusion of the intracellular domain expressed in SF9 cells. The enzyme is expressed and purified by Regeneron. The enzyme is preincubated with cold ATP and Mg to allow autophosphorylation prior to running the screen. This increases the initial rate of catalysis approximately 3 fold. The assay is performed in 96 well microtitre plates, and reaction products are detected following filtration through millipore p81 phosphocellulose plates.

Row | SMILES | IC50 (TrkA) | melting point
1 | O=C1Nc2ccccc2/C1=C/Nc1ccc(-c2nc[nH]n2)cc1 [Example 6, (3Z)-3-{[4-(1H-1,2,4-triazol-3-yl)anilino]methylene}-1,3-dihydro-2H-indol-2-one] | 10 to 100 nM | –
2 | NC(=O)Cc1ccc(N/C=C2\C(=O)Nc3ccccc32)cc1 [Example 5, 2-(4-{[(Z)-(2-oxo-1,2-dihydro-3H-indol-3-ylidene)methyl]amino}phenyl)acetamide] | 10 to 100 nM | > 250 °C
3 | CCC1(c2ccc(N/C=C3\C(=O)Nc4ccccc43)cc2)CCC(=O)NC1=O (stereo not shown) [Example 3, 3-ethyl-3-(4-{[(Z)-(2-oxo-1,2-dihydro-3H-indol-3-ylidene)methyl]amino}phenyl)-2,6-piperidinedione] | < 10 nM | –
4 | O=C1Nc2ccccc2/C1=C/Nc1ccc2[nH]c(=O)[nH]c2c1 [Example 1, 5-{[(Z)-(2-oxo-1,2-dihydro-3H-indol-3-ylidene)methyl]amino}-1,3-dihydro-2H-benzimidazol-2-one] | < 10 nM | –

Other lines, results leading:

Row | IC50 (TrkA) | melting point | SMILES
5 | < 10 nM | – | Nc1nnc(-c2cccc(N/C=C3\C(=O)Nc4ccc5[nH]nnc5c43)c2)o1 [Example 4, (8Z)-8-{[3-(5-amino-1,3,4-oxadiazol-2-yl)anilino]methylene}-6,8-dihydro[1,2,3]triazolo[4,5-e]indol-7(3H)-one]
6 | < 10 nM | – | O=C1Nc2ccccc2/C1=C/Nc1ccc(-n2cncn2)cc1 [Example 2, (3Z)-3-{[4-(1H-1,2,4-triazol-1-yl)anilino]-methylene}-1,3-dihydro-2H-indol-2-one]
